The source of these data is patent US11753373B2, “Protease inhibitors as antivirals” (priority 2021, dated 2023).

Read-outs that look alike come from different tables or passages of the source.

Series [1] is classed as in vitro ADME. The conditions noted are these: extraction ratio, compound at 1 uM; for Liver Microsomal Stability (ER) SD rat: SD rat liver microsomes 0.5 mg/mL; for Liver Microsomal Stability (ER) Beagle dog: beagle dog liver microsomes 0.5 mg/mL; for Liver Microsomal Stability (ER) Monkey: monkey liver microsomes 0.5 mg/mL; for Liver Microsomal Stability (ER) Mouse: mouse liver microsomes 0.5 mg/mL.

Series [2] has as its target SARS-CoV-2 M^pro (3CL protease) (Severe acute respiratory syndrome coronavirus 2 (2019-nCoV) (SARS-CoV-2), UniProt P0DTD1). The format is biochemical. The note with it: read-out: SARS-CoV-2M^pro inhibition IC50.
Series [3] is classed as in vitro ADME, Human. The conditions noted are these: extraction ratio, compound at 1 uM, human liver microsomes 0.5 mg/mL. A general note: Liver microsomes are vesicles of endoplasmic reticulum, rich in cytochrome P450 enzymes.
The mark [4] stands for this setting: wild type Mpro 17 nM, substrate 40 uM.

In the case of `CC(C)C[C@H](NC(=O)c1cc2ccccc2[nH]1)C(=O)N1C[C@H]2[C@@H]([C@H]1C(=O)N[C@@H](C[C@@H]1CCNC1=O)C(=O)CCl)C2(C)C` [Compound G-1-d, N-[(2S)-1-[(1R,2S,5S)-2-{[(2S)-4-chloro-3-oxo-1-[(3S)-2-oxopyrrolidin-3-yl]butan-2-yl]carbamoyl}-1,5-dihydrogenio-6,6-dimethyl-3-azabicyclo[3.1.0]hexan-3-yl]-4-methyl-1-oxopentan-2-yl]-1H-indole-2-carboxamide], in series [1], the “Liver Microsomal Stability (ER) SD rat” value is 0.78, the “Liver Microsomal Stability (ER) Beagle dog” value was determined as 0.81, the “Liver Microsomal Stability (ER) Monkey” value is recorded as 0.92 and the “Liver Microsomal Stability (ER) Mouse” value was 0.59. The IC50 in series [2] turned out to be 968 nM. In series [3], the “Liver Microsomal Stability (ER) Human” value amounted to 0.83.

For `CC(C)C[C@H](NC(=O)c1cc2ccccc2[nH]1)C(=O)N1C[C@H]2[C@@H]([C@H]1C(=O)N[C@@H](C[C@@H]1CCNC1=O)C(=O)CO)C2(C)C` [Compound G-1-e], in series [1], the “Liver Microsomal Stability (ER) SD rat” value is 0.07, the “Liver Microsomal Stability (ER) Beagle dog” value was 0.07 and the “Liver Microsomal Stability (ER) Mouse” value is on record as 0.25. In series [2] (setting [4]), the 50% inhibitory concentration (IC50) is 57.9 nM. Moreover, the “Liver Microsomal Stability (ER) Human” value in series [3] was determined as 0.17.

With `CC(C)C[C@H](NC(=O)c1cc2ccccc2[nH]1)C(=O)N1C[C@H]2[C@@H]([C@H]1C(=O)N[C@H](C=O)C(C)C)C2(C)C` [Compound G-2-a], in series [1], the “Liver Microsomal Stability (ER) SD rat” value was 0.53, the “Liver Microsomal Stability (ER) Beagle dog” value was 0.56, the “Liver Microsomal Stability (ER) Monkey” value is on record as 0.48 and the “Liver Microsomal Stability (ER) Mouse” value is 0.16. The IC50 in series [2] (setting [4]) is over 2000 nM. The “Liver Microsomal Stability (ER) Human” value in series [3] is 0.54.

On to `CC(C)C[C@H](NC(=O)c1cc2ccccc2[nH]1)C(=O)N1C[C@H]2[C@@H]([C@H]1C(=O)N[C@H](C(=O)CCl)C(C)C)C2(C)C` [Compound G-2-c], for which, in series [1], the “Liver Microsomal Stability (ER) SD rat” value was 0.79, the “Liver Microsomal Stability (ER) Beagle dog” value is 0.84 and the “Liver Microsomal Stability (ER) Mouse” value is given as 0.92. The IC50 in series [2] (setting [4]) was over 2000 nM. Also, the “Liver Microsomal Stability (ER) Human” value in series [3] is 0.85.

As to `CC(C)C[C@H](NC(=O)c1cc2ccccc2[nH]1)C(=O)N1C[C@H]2[C@@H]([C@H]1C(=O)N[C@H](C=O)C(C)(C)C)C2(C)C` [Compound G-3-a], in series [1], the “Liver Microsomal Stability (ER) SD rat” value is 0.54, the “Liver Microsomal Stability (ER) Beagle dog” value was 0.62 and the “Liver Microsomal Stability (ER) Mouse” value came to 0.78. Also, the IC50 in series [2] (setting [4]) was over 10000 nM. Moreover, the “Liver Microsomal Stability (ER) Human” value in series [3] came out at 0.70.

Consider `CC(C)C[C@H](NC(=O)C(F)(F)F)C(=O)N1C[C@H]2[C@@H]([C@H]1C(=O)N[C@H](C#N)C[C@@H]1CCNC1=O)C2(C)C` [Compound H-1-c], for which, in series [1], the “Liver Microsomal Stability (ER) SD rat” value was 0.06, the “Liver Microsomal Stability (ER) Beagle dog” value was 0.02 and the “Liver Microsomal Stability (ER) Mouse” value was 0.44. The IC50 in series [2] (setting [4]) came out at 36.7 nM. Besides, the “Liver Microsomal Stability (ER) Human” value in series [3] came to 0.15.

With `CC(C)C[C@H](NC(=O)C(C)C)C(=O)N1C[C@H]2[C@@H]([C@H]1C(=O)N[C@H](C#N)C[C@@H]1CCNC1=O)C2(C)C` [Compound H-1-e], in series [1], the “Liver Microsomal Stability (ER) SD rat” value is recorded as 0.06, the “Liver Microsomal Stability (ER) Beagle dog” value amounted to 0.05 and the “Liver Microsomal Stability (ER) Mouse” value was 0.31. For the same molecule, the IC50 in series [2] (setting [4]) worked out at 43.3 nM. For the same molecule, the “Liver Microsomal Stability (ER) Human” value in series [3] was 0.05.

Regarding `CC(C)C(=O)N[C@H](C(=O)N1C[C@H]2[C@@H]([C@H]1C(=O)N[C@@H](C[C@@H]1CCNC1=O)C(N)=O)C2(C)C)C(C)(C)C` [Compound H-2-b], in series [1], the “Liver Microsomal Stability (ER) SD rat” value is 0.37, the “Liver Microsomal Stability (ER) Beagle dog” value amounted to 0.06 and the “Liver Microsomal Stability (ER) Mouse” value was 0.37. In series [2] (setting [4]), the IC50 is 6.6 nM. Also, in series [3], the “Liver Microsomal Stability (ER) Human” value turned out to be 0.18.

Broadly, the IC50 is the point on the concentration scale where inhibition reaches its midpoint.
